From US10058550B2, “Methods of treating heart failure” (priority 2015, dated 2018)

Target: human APJ receptor (Homo sapiens (Human), UniProt P35414)
Experiment: biochemical
Type: biochemical
Settings: read-out: Activity hAPJ SPA EC50 IP
Outline: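 Membranes from CHO cells stably expressing cloned human APJ were incubated with WGA SPA beads in 20 mM HEPES pH 7.5, 5 mM MgCl2, 0.1% BSA, 200 mM NaCl and 3 μM GDP. Reaction started with 0.2 nM [35S]GTPγS ± ligands, 90 min at RT. EC50 obtained by non-linear regression as mean of independent experiments.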

human APJ receptor, sequence (P35414 whole entry): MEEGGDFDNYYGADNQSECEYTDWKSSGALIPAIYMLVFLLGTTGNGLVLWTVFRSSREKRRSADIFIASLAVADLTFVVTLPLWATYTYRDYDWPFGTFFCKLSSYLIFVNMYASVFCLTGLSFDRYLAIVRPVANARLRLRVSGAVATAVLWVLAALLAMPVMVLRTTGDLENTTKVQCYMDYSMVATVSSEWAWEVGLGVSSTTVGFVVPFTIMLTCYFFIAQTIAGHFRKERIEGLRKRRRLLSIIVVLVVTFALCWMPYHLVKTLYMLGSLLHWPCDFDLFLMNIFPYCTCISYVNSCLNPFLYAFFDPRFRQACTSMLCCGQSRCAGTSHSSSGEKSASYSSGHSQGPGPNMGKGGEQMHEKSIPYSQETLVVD

Compound	EC50 [nM]
COc1cnc([C@H](O)[C@@H](C)S(=O)(=O)Nc2nnc(-c3cccnc3)n2-c2c(OC)cccc2OC)cn1 (single isomer, unassigned) [Example 706.0, (1S,2R)-N-(4-(2,6-dimethoxyphenyl)-5-(3-pyridinyl)-4H-1,2,4-triazol-3-yl)-1-hydroxy-1-(5-methoxy-2-pyrazinyl)-2-propanesulfonamide or (1R,2S)-N-(4-(2,6-dimethoxyphenyl)-5-(3-pyridinyl)-4H-1,2,4-triazol-3-yl)-1-hydroxy-1-(5-methoxy-2-pyrazinyl)-2-propanesulfonamide]	0.34
COc1ccnc(OC)c1-n1c(NS(=O)(=O)[C@@H](C)[C@H](OC)c2ccc(Cl)cn2)nnc1-c1cccnc1 (single isomer, unassigned) [Example 712.0]	0.9
COc1cccc(OC)c1-n1c(NS(=O)(=O)[C@@H](C)[C@H](OC)C2CCC2)nnc1-c1cncc(C)c1 (single isomer, unassigned) [Example 719.0]	44
COc1cccc(-c2nnc(NS(=O)(=O)[C@@H](C)[C@@H](O)C3CC(F)(F)C3)n2-c2c(OC)cccc2OC)n1 (single isomer, unassigned) [Example 720.0]	35
COc1cccc(-c2nnc(NS(=O)(=O)[C@@H](C)[C@@H](O)C3CC(F)(F)C3)n2-c2c(OC)cccc2OC)n1 (single isomer, unassigned) [Example 722.0]	1.7
COc1cccc(-c2nnc(NS(=O)(=O)[C@@H](C)[C@@H](O)C3CC(F)(F)C3)n2-c2c(OC)cccc2OC)n1 (single isomer, unassigned) [Example 723.0]	2.5
COc1cccc(OC)c1-n1c(NS(=O)(=O)[C@@H](C)[C@H](OC)C2CC(C)(C)C2)nnc1-c1cncc(C)c1 (single isomer, unassigned) [Example 724.0]	220
COc1cccc(OC)c1-n1c(NS(=O)(=O)[C@@H](C)[C@H](OC)C2CC(C)(C)C2)nnc1-c1cncc(C)c1 (single isomer, unassigned) [Example 725.0]	36
COc1cccc(OC)c1-n1c(NS(=O)(=O)[C@@H](C)[C@H](OC)C2CC(C)(C)C2)nnc1-c1cncc(C)c1 (single isomer, unassigned) [Example 726.0]	7.5
COc1cccc(OC)c1-n1c(NS(=O)(=O)[C@@H](C)[C@H](OC)C2CC(C)(C)C2)nnc1-c1cncc(C)c1 (single isomer, unassigned) [Example 727.0]	200
COc1cccc(OC)c1-n1c(NS(=O)(=O)C[C@H](O)c2ncc(C)cn2)nnc1-c1cncc(C)c1 (single isomer, unassigned) [Example 729.0, (R)—N-(4-(2,6-dimethoxyphenyl)-5-(5-methylpyridin-3-yl)-4H-1,2,4-triazol-3-yl)-2-hydroxy-2-(5-methylpyrimidin-2-yl)ethanesulfonamide or (S)—N-(4-(2,6-dimethoxyphenyl)-5-(5-methylpyridin-3-yl)-4H-1,2,4-triazol-3-yl)-2-hydroxy-2-(5-methylpyrimidin-2-yl)ethanesulfonamide]	1.5
COc1cccc(OC)c1-n1c(NS(=O)(=O)[C@H](C)[C@@H](O)c2cn3ccccc3n2)nnc1-c1cccnc1 (single isomer, unassigned) [Example 735.0, (1S,2R)—N-(4-(2,6-dimethoxyphenyl)-5-(pyridin-3-yl)-4H-1,2,4-triazol-3-yl)-1-hydroxy-1-(imidazo[1,2-a]pyridin-2-yl)propane-2-sulfonamide or (1R,2S)—N-(4-(2,6-dimethoxyphenyl)-5-(pyridin-3-yl)-4H-1,2,4-triazol-3-yl)-1-hydroxy-1-(imidazo[1,2-a]pyridin-2-yl)propane-2-sulfonamide]	0.48
COc1cccc(OC)c1-n1c(NS(=O)(=O)[C@H](C)[C@@H](O)c2cn3ccccc3n2)nnc1-c1cccnc1 (single isomer, unassigned) [Example 736.0, (1S,2R)—N-(4-(2,6-dimethoxyphenyl)-5-(pyridin-3-yl)-4H-1,2,4-triazol-3-yl)-1-hydroxy-1-(imidazo[1,2-a]pyridin-2-yl)propane-2-sulfonamide or (1R,2S)—N-(4-(2,6-dimethoxyphenyl)-5-(pyridin-3-yl)-4H-1,2,4-triazol-3-yl)-1-hydroxy-1-(imidazo[1,2-a]pyridin-2-yl)propane-2-sulfonamide]	19
COc1cccc(-c2nnc(NS(=O)(=O)[C@@H](C)[C@H](OC)c3ncc(C)cn3)n2-c2c(O)ncnc2OC)n1 (single isomer, unassigned) [Example 739.0, (1R,2S,M)-N-(4-(4-hydroxy-6-methoxypyrimidin-5-yl)-5-(6-methoxypyridin-2-yl)-4H-1,2,4-triazol-3-yl)-1-methoxy-1-(5-methylpyrimidin-2-yl)propane-2-sulfonamide or (1R,2S,P)-N-(4-(4-hydroxy-6-methoxypyrimidin-5-yl)-5-(6-methoxypyridin-2-yl)-4H-1,2,4-triazol-3-yl)-1-methoxy-1-(5-methylpyrimidin-2-yl)propane-2-sulfonamide]	1.5
COc1cccc(-c2nnc(NS(=O)(=O)[C@@H](C)[C@H](OC)c3ncc(C)cn3)n2-c2c(O)ncnc2OC)n1 (single isomer, unassigned) [Example 740.0, (1R,2S,M)-N-(4-(4-hydroxy-6-methoxypyrimidin-5-yl)-5-(6-methoxypyridin-2-yl)-4H-1,2,4-triazol-3-yl)-1-methoxy-1-(5-methylpyrimidin-2-yl)propane-2-sulfonamide or (1R,2S,P)-N-(4-(4-hydroxy-6-methoxypyrimidin-5-yl)-5-(6-methoxypyridin-2-yl)-4H-1,2,4-triazol-3-yl)-1-methoxy-1-(5-methylpyrimidin-2-yl)propane-2-sulfonamide]	56
COc1cnc([C@@H](OC(C)C)[C@@H](C)S(=O)(=O)Nc2nnc(-c3cncc(C)c3)n2-c2c(OC)cccc2OC)cn1 (single isomer, unassigned) [Example 742.0, (1R,2R)-N-(4-(2,6-dimethoxyphenyl)-5-(5-methylpyridin-3-yl)-4H-1,2,4-triazol-3-yl)-1-isopropoxy-1-(5-methoxypyrazin-2-yl)propane-2-sulfonamide or (1S,2S)-N-(4-(2,6-dimethoxyphenyl)-5-(5-methylpyridin-3-yl)-4H-1,2,4-triazol-3-yl)-1-isopropoxy-1-(5-methoxypyrazin-2-yl)propane-2-sulfonamide]	35
COc1cccc(OC)c1-n1c(NS(=O)(=O)[C@H](C)[C@H](OC(C)C)c2ccc(Cl)cn2)nnc1-c1cncc(C)c1 (single isomer, unassigned) [Example 744.0, (1R,2R)-1-(5-chloropyridin-2-yl)-N-(4-(2,6-dimethoxyphenyl)-5-(5-methylpyridin-3-yl)-4H-1,2,4-triazol-3-yl)-1-isopropoxypropane-2-sulfonamide or (1S,2S)-1-(5-chloropyridin-2-yl)-N-(4-(2,6-dimethoxyphenyl)-5-(5-methylpyridin-3-yl)-4H-1,2,4-triazol-3-yl)-1-isopropoxypropane-2-sulfonamide]	26
COc1cccc(OC)c1-n1c(NS(=O)(=O)[C@H](C)[C@H](OC(C)C)c2ccc(Cl)cn2)nnc1-c1cncc(C)c1 (single isomer, unassigned) [Example 745.0, (1R,2R)-1-(5-chloropyridin-2-yl)-N-(4-(2,6-dimethoxyphenyl)-5-(5-methylpyridin-3-yl)-4H-1,2,4-triazol-3-yl)-1-isopropoxypropane-2-sulfonamide or (1S,2S)-1-(5-chloropyridin-2-yl)-N-(4-(2,6-dimethoxyphenyl)-5-(5-methylpyridin-3-yl)-4H-1,2,4-triazol-3-yl)-1-isopropoxypropane-2-sulfonamide]	0.4
COc1cccc(OC)c1-n1c(NS(=O)(=O)[C@H](C)[C@H](OC(C)C)c2cnc(C)cn2)nnc1-c1cncc(C)c1 (single isomer, unassigned) [Example 746.0, (1R,2R)-N-(4-(2,6-dimethoxyphenyl)-5-(5-methylpyridin-3-yl)-4H-1,2,4-triazol-3-yl)-1-isopropoxy-1-(5-methylpyrazin-2-yl)propane-2-sulfonamide or (1S,2S)-N-(4-(2,6-dimethoxyphenyl)-5-(5-methylpyridin-3-yl)-4H-1,2,4-triazol-3-yl)-1-isopropoxy-1-(5-methylpyrazin-2-yl)propane-2-sulfonamide]	80
COc1cccc(OC)c1-n1c(NS(=O)(=O)[C@H](C)[C@H](OC(C)C)c2cnc(C)cn2)nnc1-c1cncc(C)c1 (single isomer, unassigned) [Example 747.0, (1R,2R)-N-(4-(2,6-dimethoxyphenyl)-5-(5-methylpyridin-3-yl)-4H-1,2,4-triazol-3-yl)-1-isopropoxy-1-(5-methylpyrazin-2-yl)propane-2-sulfonamide or (1S,2S)-N-(4-(2,6-dimethoxyphenyl)-5-(5-methylpyridin-3-yl)-4H-1,2,4-triazol-3-yl)-1-isopropoxy-1-(5-methylpyrazin-2-yl)propane-2-sulfonamide]	7.6
COc1ncnc(OC)c1-n1c(NS(=O)(=O)[C@@H]2C[C@@H](OC)CN(c3ncc(F)cn3)C2)nnc1-c1cccnc1 (single isomer, unassigned) [Example 812.0, (3S,5S)—N-(4-(4,6-dimethoxy-5-pyrimidinyl)-5-(3-pyridinyl)-4H-1,2,4-triazol-3-yl)-1-(5-fluoro-2-pyrimidinyl)-5-methoxy-3-piperidinesulfonamide or (3R,5R)—N-(4-(4,6-dimethoxy-5-pyrimidinyl)-5-(3-pyridinyl)-4H-1,2,4-triazol-3-yl)-1-(5-fluoro-2-pyrimidinyl)-5-methoxy-3-piperidinesulfonamide]	230
Cc1cnc([C@@H](C)[C@H](C)S(=O)(=O)Nc2nnc(-c3cncc(C)c3)n2-c2c(F)cccc2F)nc1 (single isomer, unassigned) [Example 826.0]	1.7
COc1cccc(-c2nnc(NS(=O)(=O)[C@@H]3CCCN(c4ncc(Cl)cn4)C3)n2-c2c(OC)ncnc2OC)n1 (single isomer, unassigned) [Example 830.0]	14
